Earlier results, collected in patent publication US20240090499A1, “PRESERVATIVE COMPOSITIONS” (Dermegen Inc., priority 2022, published 2024).
Where two headings read alike, the source gives them in different places.

Test system: fungi (molds)
Conditions: ingredient on its own

Row | Compound | anti-fungal activity as known | anti-fungal activity as known (listed as Polylysine)
1 | CCCCCCCC(=O)OCC(O)CO (stereo not drawn) [glyceryl caprylate] | weak preservatives against molds | 
2 | polylysine | only weakly anti-fungal | weak preservative against fungal microorganisms such as molds
